Source: article PMC7970798 (Computational and Structural Biotechnology Journal, 2021)
No end group written: not given here.

Target: PALS1 F318W (Homo sapiens, UniProt Q8N3R9, F318W)
Experiment: biochemical
Assay type: binding

Chain of PALS1 F318W (Q8N3R9 256-336 F318W limits assumed): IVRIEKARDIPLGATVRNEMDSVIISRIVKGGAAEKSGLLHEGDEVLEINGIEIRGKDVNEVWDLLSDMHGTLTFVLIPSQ

VKNLNSSRVPDLLV [SARS-CoV-2, VKNLNSSRVPDLLV]
Kd: 29 ± 4 µM
